In US20240261274A1, “TREATMENT OF MYC-DRIVEN CANCERS WITH GSPT1 DEGRADERS” (MONTE ROSA THERAPEUTICS, INC., priority 2021, published 2024):

Assays:
[1] = target: GSPT1 (Homo sapiens, UniProt P15170+Q96SW2); experiment: GSPT1 degradation by Compound 345 in cancer cell lines (western blot); assay type: cell-based; set-up: endogenous in cells; host or cells: MM1 S (ATCC CRL-2974)
Protocol: NCI-H1155 and ABC-1 were taken as representative of N-Myc positive NSCLC. NCI-H2023 and NCI-H441 as of N-Myc low representatives. 10A: western blotting analysis performed after 6 (NCI-H1155 and ABC-1) or 24 hr (NCI-H2023 and NCI-H441) posttreatment. […] 10B: corresponding densitometry analyses of GSPT1 normalized to GAPDH. DC50 and Dmax as indicated.
NCI-H1155 and ABC-1 were taken as representative of N-Myc high NSCLC. NCI-H2023 and NCI-H441 as of N-Myc low representatives. Left: densitometry analysis of GSPT1 normalized to GAPDH from western blotting following treatment with Compound 345 (as indicated). Right: 72 hr viability assay following treatment with Compound 345 as assessed by Cell Titer Glo. For both the GSPT1 expression plot and the cell viability plot, two Myc-driven cancer cell lines are represented by upright triangles and diamonds. Two non-Myc-driven cancer cell lines are represented by upside down triangles and circles.
NCI-H1155 and NCI-H2023 were taken as representative of N-Myc high and low NSCLC. 12A: western blot analysis probing for GSPT1 and N-Myc following treatment with Compound 345 (as indicated). Tubulin was used as a loading control. N-Myc could not be detected by western blotting in the NCI-H2023 line. 12B: Single-sample gene set enrichment analysis (ssGSEA) results for a Myc target gene set at 6 hours (left) and 24 hours (right) after treatment. ssGSEA scores were normalized to DMSOs for each cell line and averaged for three replicates. Error bars denote+/−1 s.d. across replicates.
NCI-H1836 and NCI-H1876 were taken as two representatives of L-Myc high SCLC. Western blot analysis probing for GSPT1 and L-Myc following treatment with Compound 345 as indicated. GAPDH was used as a loading control.
FIGS. 16A, 16B and 16C: Activity of Compound 345 in the c-Myc high multiple myeloma MM1S cell line. […] GAPDH was used as a loading control. […] Lenalidomide was used as a benchmark. 16C: Antiproliferative activity of Compound 345 (as indicated) following treatment with Compound 345 for 72 hr as assessed by Cell Titer Glo assay.
(§1) FIGS. 18A, 18B and 18C: Activity of Compound 345 in the c-Myc high WSU-DLCL2 lymphoma cell line. […] GAPDH was used as a loading control. 18B: Antiproliferative activity of Compound 345 (as indicated) following treatment with Compound 345 for 72 hr as assessed by Cell Titer Glo assay. […] Mice were dosed daily PO with vehicle or Compound 345 at 3, 10 mg/kg (as indicated). Tumor volumes were measured twice weekly. X-axis represents the number of days for treatment duration; y-axis represents mean tumor volume (in mm^3)±SEM. CHOP was used as a positive control for this model. Drug-free vehicle is represented by black circles; CHOP combination represented by light squares; Compound 345 3 mg/kg represented by triangles; Compound 345 10 mg/kg represented by dark squares.
as §1, with “19A, 19B,” for “18A, 18B”, “19C:” for “18C:”, “DOHH-2” for “WSU-DLCL2”, “19B:” for “18B:”, “model.” for “model. Drug-free vehicle is represented by black circles; CHOP combination represented by light squares; Compound 345 3 mg/kg represented by triangles; Compound 345 10 mg/kg represented by dark squares.”
Western blot analysis performed 24 hr post treatment initiation. GAPDH was used as a loading control. GSPT1 DC50 and Dmax as indicated.

[2] = system: patient-derived xenografts; experiment: In vivo mouse patient-derived xenograft experiment, survival, Compound 345
Description: FIGS. 14A and 14B: In vivo mouse patient-derived xenograft experiment.

Sequence of GSPT1 (P15170 whole entry): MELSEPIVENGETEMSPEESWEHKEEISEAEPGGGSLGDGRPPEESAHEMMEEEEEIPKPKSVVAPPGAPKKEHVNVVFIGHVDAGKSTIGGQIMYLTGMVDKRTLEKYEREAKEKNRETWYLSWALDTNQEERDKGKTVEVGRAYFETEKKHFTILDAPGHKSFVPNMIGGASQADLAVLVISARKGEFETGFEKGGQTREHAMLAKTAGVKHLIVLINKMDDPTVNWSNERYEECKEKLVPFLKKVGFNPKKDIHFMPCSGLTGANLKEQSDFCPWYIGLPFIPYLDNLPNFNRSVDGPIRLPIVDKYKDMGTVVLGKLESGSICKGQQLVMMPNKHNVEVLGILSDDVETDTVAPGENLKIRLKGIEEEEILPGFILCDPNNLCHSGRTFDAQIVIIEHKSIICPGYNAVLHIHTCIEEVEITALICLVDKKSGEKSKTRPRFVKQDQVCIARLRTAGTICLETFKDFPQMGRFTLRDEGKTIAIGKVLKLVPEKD
Sequence of GSPT1 (Q96SW2 whole entry): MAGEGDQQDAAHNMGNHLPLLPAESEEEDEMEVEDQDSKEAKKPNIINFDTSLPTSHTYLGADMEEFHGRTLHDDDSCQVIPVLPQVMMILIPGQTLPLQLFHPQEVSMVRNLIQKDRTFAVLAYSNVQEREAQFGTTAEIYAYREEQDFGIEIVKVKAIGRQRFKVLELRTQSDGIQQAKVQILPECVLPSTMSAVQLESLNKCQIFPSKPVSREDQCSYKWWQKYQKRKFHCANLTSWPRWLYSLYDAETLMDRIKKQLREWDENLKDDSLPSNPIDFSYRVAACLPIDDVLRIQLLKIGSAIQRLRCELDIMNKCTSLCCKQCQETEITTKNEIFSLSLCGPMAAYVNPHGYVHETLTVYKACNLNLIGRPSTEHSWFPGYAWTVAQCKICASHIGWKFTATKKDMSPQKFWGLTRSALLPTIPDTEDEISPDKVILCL
Sequence of GSPT1 (Q16531 whole entry partner): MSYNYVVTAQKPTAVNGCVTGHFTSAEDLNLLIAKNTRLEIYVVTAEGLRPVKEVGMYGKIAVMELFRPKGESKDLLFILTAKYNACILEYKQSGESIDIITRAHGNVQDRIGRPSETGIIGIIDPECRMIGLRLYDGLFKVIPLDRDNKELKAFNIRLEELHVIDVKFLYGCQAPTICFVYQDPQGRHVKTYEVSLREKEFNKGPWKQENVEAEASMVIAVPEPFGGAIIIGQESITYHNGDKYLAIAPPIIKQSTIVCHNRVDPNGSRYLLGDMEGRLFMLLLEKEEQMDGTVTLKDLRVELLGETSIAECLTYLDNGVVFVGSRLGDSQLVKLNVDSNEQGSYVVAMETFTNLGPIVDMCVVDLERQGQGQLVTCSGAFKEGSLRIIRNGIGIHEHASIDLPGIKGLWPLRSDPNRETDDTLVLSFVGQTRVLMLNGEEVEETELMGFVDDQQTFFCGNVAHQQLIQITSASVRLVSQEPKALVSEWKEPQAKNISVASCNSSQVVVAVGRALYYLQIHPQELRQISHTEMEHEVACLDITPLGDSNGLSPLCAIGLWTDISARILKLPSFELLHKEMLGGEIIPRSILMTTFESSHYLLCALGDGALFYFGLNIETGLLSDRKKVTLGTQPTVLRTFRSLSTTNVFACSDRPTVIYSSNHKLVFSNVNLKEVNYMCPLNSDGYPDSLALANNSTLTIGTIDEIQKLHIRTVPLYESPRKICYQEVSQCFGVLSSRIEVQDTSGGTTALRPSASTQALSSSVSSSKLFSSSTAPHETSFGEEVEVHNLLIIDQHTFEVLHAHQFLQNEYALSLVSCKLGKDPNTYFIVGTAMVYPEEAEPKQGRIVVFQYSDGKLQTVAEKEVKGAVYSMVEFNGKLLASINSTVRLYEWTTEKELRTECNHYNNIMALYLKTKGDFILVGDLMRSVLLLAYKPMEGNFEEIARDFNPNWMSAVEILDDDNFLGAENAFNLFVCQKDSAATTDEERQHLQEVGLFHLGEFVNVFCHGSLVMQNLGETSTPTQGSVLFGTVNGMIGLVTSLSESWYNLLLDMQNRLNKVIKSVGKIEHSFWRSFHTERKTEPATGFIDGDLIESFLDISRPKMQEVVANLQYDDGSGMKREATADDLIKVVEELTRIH

O=C1CCC(N2Cc3ccc(COC(=O)Nc4cc(OC(F)(F)F)ccc4F)cc3C2=O)C(=O)N1 (centres unmarked) [Compound 345, (2-(2,6-dioxopiperidin-3-yl)-3-oxoisoindolin-5-yl)methyl(2-fluoro-5-(trifluoromethoxy)phenyl)carbamate]
GSPT1 level ([1]; DOHH-2 lymphoma cell line, 24 hr post treatment): Degradation of GSPT1 | GSPT1 level ([1]; MM1S multiple myeloma cell line, 24 hr post treatment): Degradation of GSPT1 | GSPT1 level ([1]; NSCLC lines NCI-H1155, ABC-1 (6 hr), NCI-H2023, NCI-H441 (24 hr)): Induced-degradation of GSPT1 | GSPT1 level, timecourse ([1]; NSCLC lines NCI-H1155 and NCI-H2023): degradation of GSPT1 | GSPT1 level, timecourse ([1]; SCLC lines NCI-H1836 and NCI-H1876 (L-Myc high)): degradation of GSPT1 | GSPT1 level ([1]; WSU-DLCL2 lymphoma cell line, 24 hr post treatment): Degradation of GSPT1 | survival ([2]; biomarker negative patient-derived xenografts): but not in the biomarker negative patient-derived xenografts | survival ([2]; biomarker positive (high N-Myc or L-Myc mRNA expression) patient-derived xenografts): significantly prolonged survival
